Entries after “also recorded” stand apart in the source; their conditions may differ. Read-outs that look alike come from different tables or passages of the source.
Tests used:
[1] = system: CD4+ T-cells producing IL-17 (Th17 cells); assay: Flow cytometry of spleen cells for CD4+ T-cells producing IL-17; assay type: in vivo; conditions: ovx mice treated daily for two weeks
collagen α1(I) = conditions: cited from earlier work
[2] = system: IL-17 production and TH17 cell differentiation; conditions: cited from earlier work
serum CTx = assay: Serum CTx ELISA in ovariectomized mice; assay type: in vivo; conditions: ovx mice treated daily, two weeks, relative to sham operated mice
fibrosis accumulation = conditions: rat urethral stricture, cirrhosis, pulmonary fibrosis models; cited from earlier work
Body composition by MRI = assay type: in vivo, mice; conditions: 12 weeks of treatment, versus PBS
Method: MRI: Measurements of body composition were performed using the magnetic resonance imaging facility located at the Animal Model Research Core at Washington University (CNRU grant NIB P30 DK56341).
IL-17A inhibits adipocyte differentiation from human mesenchymal stem cells (Shin et al., Biochem. Pharmacol., 77(12), 1835-1844, 2009). IL17R−/− mice are heavier and have higher leptin levels, which is a marker of adopocyte mass (Galic et al., Mol. Cell Endocrinol., 316(2), 129-139, 2010; Goswami et al., Eur J Immunol, 39(10), 2831-2839, 2009). Leptin can stimulate IL-17 production (Liu et al., Br. J. Ophthalmol., 92(4), 557-561, 2008), and blood IL-17 levels are increased in obese women (Sumarac-Dumanovic et al., Int. J. Obes. (Lond), 33(1), 151-156, 2009). […] Eight week old mice (n=6 mice per group) were treated with Halofuginone or PBS for 12 weeks, after which body content was measured using MRI.

[3] = system: ovariectomy-induced bone loss; assay: Ovariectomy-induced bone loss in mice, micro-CT of distal femora; assay type: in vivo
bone formation = assay: Bone formation assay (calcein double labeling); assay type: in vivo; conditions: mice treated daily for 14 days, versus PBS control
Method: Bone formation assay (calcein double labeling): Mice were injected with 7.5 mg/kg calcein (Sigma-Aldrich; St. Louis, Mo.). Five days later mice were injected again, and tibias were harvested after an additional 2 days for histologic analysis. Dynamic assessment of trabecular bone formation was determined on non-decalcified sections using BioQuant software (Bioquant; Nashville, Tenn.). This software provided measures of bone surface, percent single-(sLS/BS) and double-labeled (dLS/BS) bone surface, mineralizing surface (MS/BS), mineral apposition rate (MAR), and bone formation rate (BFR/BS). Trabecular bone measurements were taken from a region encompassing a 500 μm-long field, across the width of the bone (located 100 μm below the growth plate). For each animal, 2 serial sections were analyzed and the measurements averaged. Pictures were obtained using an Olympus 1×51 fluorescent microscope fitted with Olympus DP70 camera (Olympus; Center Valley, Pa.).
Since Halofuginone inhibits type I collagen synthesis by fibroblasts and other cells, bone formation rates were tested to determine whether the rates are reduced in mice treated with the chemical. Mice were treated daily with HL or vehicle control for 14 days, while Calcein was injected on day 7 and 12, and Mineral Apposition Rates (MAR) and Bone Formation Rates (BFR) were determined.

[4] = healthy male volunteers, cited from earlier work
P. falciparum FCR-3 = conditions: cited from earlier work; for antimalarial activity and selectivity in words: against P. falciparum in vitro
FM3A mouse mammary cells = conditions: cited from earlier work
RANKL = assay: RT-PCR for RANKL in primary osteoblasts; assay type: cell-based, mice; conditions: 24 hours
Method: RT-PCR: RNA was isolated using RNeasy kits (Qiagen); RLT lysis buffer was supplemented with β-mercaptoethanol (1%). Purified RNA was treated with DNase I (Invitrogen; Carlsbad, Calif.) prior to reverse transcription (RT). RT was performed using SuperScript III (Invitrogen). A negative control using RNA not subjected to reverse transcription was included in each assay. Quantitative PCR (qPCR) was performed using Applied Biosystems's (Foster City, Calif.) Power SYBR green master mix and gene specific primers. The qPCR reaction was run on Applied Biosystem's ABI Prism 7000. Transcript levels were normalized to cyclophilin.
To test the function of IL-17 signaling in the osteoblast, the inventors first determined the IL-17 receptor is expressed in osteoblasts, and its expression is unaffected by TNFα or IL-17 stimulation. Primary osteoblasts were stimulated with vehicle control, IL-17 (10 ng/ml), TNF (5 ng/ml), or a combination of the two for 24 hours, and RT-PCR for the IL-17 receptor and actin was performed (FIG. 6). Next the inventors cultured BMMs in combination with primary osteoblasts, Vitamin D, and varying IL-17 concentrations. Osteoblasts were lifted, then osteoclasts were fixed and TRAP stained. […] IL-17 receptor WT and KO osteoblasts were cultured with IL-17 (10 ng/ml) and BrdU for 24 hours, after which BrdU incorporation was measured by absorptiometry.

osteoblasts = assay: BrdU incorporation in osteoblasts; assay type: cell-based, mice; conditions: 10 ng/ml, 24 hours, IL-17 receptor WT and KO osteoblasts
Method: To test the function of IL-17 signaling in the osteoblast, the inventors first determined the IL-17 receptor is expressed in osteoblasts, and its expression is unaffected by TNFα or IL-17 stimulation. Primary osteoblasts were stimulated with vehicle control, IL-17 (10 ng/ml), TNF (5 ng/ml), or a combination of the two for 24 hours, and RT-PCR for the IL-17 receptor and actin was performed (FIG. 6). Next the inventors cultured BMMs in combination with primary osteoblasts, Vitamin D, and varying IL-17 concentrations. Osteoblasts were lifted, then osteoclasts were fixed and TRAP stained. […] Primary osteoblasts were stimulated with IL-17 or vehicle control for 24 hours, and RT-PCR was performed using primers for RANKL or actin. […] IL-17 receptor WT and KO osteoblasts were cultured with IL-17 (10 ng/ml) and BrdU for 24 hours, after which BrdU incorporation was measured by absorptiometry.

[5] = system: coculture of bone marrow macrophages (BMMs) with osteoblasts; assay: Osteoclast formation in coculture of bone marrow macrophages with osteoblasts; assay type: cell-based, mice; conditions: BMMs with primary osteoblasts, Vitamin D, varying concentrations
Method: Calvaria osteoblast isolation and culture: Whole calvaria were extracted from 3-4 day old pups and cleaned of soft and periostial tissue. Osteoblasts were liberated by 3×20 minute collagenase treatment at 37 degrees, shaking. Osteoblasts were transduced with appropriate virally expressed proteins when 50% confluent, selected with the appropriate antibiotic for 4 days, then plated for experiments. For cocultures, BMMs were cultured for 4 days prior to being lifted and then cultured with osteoblasts in α-MEM media containing pen/strep, 10% FBS and 10 nM VitD3, plus IL-17 or other cytokines where indicated.
To test whether IL-17 signaling is important in the pathogenesis of osteoporosis, the inventors mimicked the most common human form of osteoporosis, that of estrogen deficiency, by removing ovaries (ovx) in mice. […] Four weeks later, Micro-CT, a sensitive and specific measure of bone volume, was used to assess trabecular Bone Volume per Total Volume measured in the distal femora. […] Ovariectomized mice (n=5-7 mice per group) were treated with IL-17 blocking antibody or isotype control for two and four weeks and distal femora were analyzed by micro-CT.
To test the function of IL-17 signaling in the osteoblast, the inventors first determined the IL-17 receptor is expressed in osteoblasts, and its expression is unaffected by TNFα or IL-17 stimulation. […]

[6] = Table 1, against P. falciparum FCR-3, in vitro, read-out: EC50 (M) antimalarial activity
[7] = read-out: EC50 (M) cytotoxicity, Table 1, against FM3A mouse mammary cells
[8] = Table 2, against P. falciparum FCR-3, in vitro, read-out: EC50 (M) antimalarial activity
[9] = read-out: EC50 (M) cytotoxicity, Table 2, against FM3A mouse mammary cells

Molecule: O=C(C[C@@H]1NCCC[C@H]1O)Cn1cnc2cc(Br)c(Cl)cc2c1=O [Halofuginone, 7-Bromo-6-chloro-3-[3-[(2S,3R)-3-hydroxy-2-piperidinyl]-2-oxopropyl]-4-quinazolinone]
- percentage of CD4+ T-cells producing IL-17 [1]: reduces Th17 cells; also recorded: significantly reduced
- Collagen type II or III (collagen α1(I)): not inhibited
- collagen α1(I) mRNA and protein levels (collagen α1(I); variety of cells): inhibits collagen α1(I) mRNA and protein levels
- TGFβ inhibition ([2]; at concentrations that inhibit IL-17 production): no TGFβ inhibition is seen
- IL-17 production and TH17 cell differentiation [2]: inhibits IL-17 production and TH17 cell differentiation
- serum CTx (serum CTx): reduces serum CTx; also recorded: blunted, non-statistically significant, increase
- fibrosis accumulation (fibrosis accumulation): inhibit fibrosis accumulation
- percent body fat (Body composition by MRI): reduced percent body fat
- percent lean mass (Body composition by MRI): small but statistically significant increase
- total fat mass (Body composition by MRI): significantly less total fat mass
- Connectivity Density ([3]; four weeks after ovariectomy, daily injection): completely protected
- ovariectomy-induced bone loss ([3]; four weeks post-ovx): lost significantly less bone than PBS injected mice; also recorded: protects from ovariectomy-induced bone loss; also recorded: lose significantly less bone
- BV/TV, BV, connectivity density, trabecular thickness, and trabecular number ([3]; ovx mice, daily treatment, four weeks, relative to sham): but not in Halofuginone treated ovx mice relative to sham
- Bone volume per total volume (BV/TV) ([3]; ovx mice, daily treatment, two weeks): significantly lower in vehicle treated ovx mice compared with either sham or Halofuginone treated ovx mice
- ovariectomy-induced bone loss ([3]; two weeks post-ovx): lost significantly less bone than PBS treated mice; also recorded: protects from ovariectomy-induced bone loss; also recorded: lose significantly less bone
- bone formation rates (bone formation): does not affect bone formation; also recorded: equivalent bone formation rates
- maximal tolerated dose ([4]; daily oral dose): 1.5 mg
- tolerability ([4]; oral, 1.5 to 2.5 mg): moderately tolerated
- tolerability of single oral doses ([4]; single oral doses of 0.07 and 0.5 mg): safe and well tolerated

Molecule: C[C@@H]1CC[C@H]2[C@@H](C)C(=O)O[C@@H]3O[C@@]4(C)CC[C@@H]1[C@]32OO4 [artemisinin]
- EC50 (P. falciparum FCR-3; [6]): 1e-08 M
- EC50 (FM3A mouse mammary cells): 1e-05 M

Molecule: CCN(CC)CCCC(C)Nc1ccnc2cc(Cl)ccc12 (stereo not drawn) [chloroquine]
- EC50 (P. falciparum FCR-3; [6]): 1.8e-08 M
- EC50 (FM3A mouse mammary cells; [7]): 3.2e-05 M

Molecule: O=C(C[C@H]1NCCC[C@@H]1O)Cn1cnc2ccccc2c1=O [compound 1, febrifugine]
- EC50 (P. falciparum FCR-3; [6]): 7e-10 M
- EC50 (FM3A mouse mammary cells; [7]): 1.7e-07 M

Molecule: O=c1c2ccccc2ncn1CC1(O)C[C@@H]2NCCC[C@@H]2O1 (stereo partly drawn) [compound 2, isofebrifugine]
- EC50 (P. falciparum FCR-3; [6]): 3.4e-09 M
- EC50 (FM3A mouse mammary cells): 1.8e-07 M

Molecule: O=C(CC1NCCCC1=O)Cn1cnc2ccccc2c1=O (stereo not drawn) [compound 7]
- EC50 (P. falciparum FCR-3; [6]): 2e-08 M
- antimalarial activity and selectivity in words (P. falciparum FCR-3): potential antimalarial activity with high selectivity
- EC50 (FM3A mouse mammary cells; [7]): 1e-05 M

Molecule: O=c1c2ccccc2ncn1CC(O)C[C@H]1NCCC[C@@H]1O (stereo partly drawn) [compound 8]
- EC50 (P. falciparum FCR-3; P. falciparum in vitro, read-out: EC50, in vitro antimalarial activity): 2e-08 M
- antimalarial activity and selectivity in words (P. falciparum FCR-3): strongly active and selective
- EC50 (FM3A mouse mammary cells; [7]): 1.5e-05 M

Molecule: O=C(C[C@H]1NCCC[C@@H]1O)Cn1cnccc1=O [compound 12]
- EC50 (P. falciparum FCR-3; [6]): 6e-07 M
- EC50 (FM3A mouse mammary cells; [7]): > 1.9e-05 M

Molecule: O=c1ccncn1CC1(O)C[C@@H]2NCCC[C@@H]2O1 (stereo partly drawn) [compound 13]
- EC50 (P. falciparum FCR-3; [6]): 4e-08 M
- EC50 (FM3A mouse mammary cells): 7e-06 M

Molecule: O=C(C[C@H]1NCCC[C@@H]1O)Cn1ccc2ccccc2c1=O [compound 14]
- EC50 (P. falciparum FCR-3; [6]): 5e-07 M
- EC50 (FM3A mouse mammary cells; [7]): > 1.6e-05 M

Molecule: O=c1c2ccccc2ccn1CC1(O)C[C@@H]2NCCC[C@@H]2O1 (stereo partly drawn) [compound 15]
- EC50 (P. falciparum FCR-3; [6]): 2.1e-06 M
- EC50 (FM3A mouse mammary cells): > 6.3e-06 M

Molecule: CC1(C)[C@@H](N2CNc3ccccc3C2=O)C(O)=C[C@@H]2[C@@H](O)CCCN21 [compound 38]
- EC50 (P. falciparum FCR-3; [8]): 4.2e-07 M
- EC50 (FM3A mouse mammary cells; [9]): > 1.6e-05 M

Molecule: CNc1ccccc1C(=O)N[C@H]1C(O)=C[C@@H]2[C@@H](O)CCCN2C1(C)C [compound 39]
- EC50 (P. falciparum FCR-3; [8]): 6e-07 M
- EC50 (FM3A mouse mammary cells; [9]): > 1.7e-05 M

Molecule: IL-17: interleukin-17, cytokine promoting osteoclast formation, added to cultures
- RANKL mRNA expression in the osteoblast (RANKL): induced by IL-17
- osteoblast proliferation (BrdU incorporation) (osteoblasts): does not affect osteoblast proliferation
- osteoclast formation [5]: potently induced osteoclast formation

Source: patent publication US8357692B2, “Methods of treatment of bone degenerative diseases” (Washington University, priority 2010, dated 2013)
